In patent US20250221988A1 (Cullgen (Shanghai), Inc., priority 2022, published 2025) one finds IC50 data, which are given here for 19 compounds.

For experiment [1], the system named is MOLM-13 cells. Nature of the experiment: Cell viability assay (CellTiter-Glo) in MOLM-13 cells. Type of experiment: cell-based. The conditions noted are these: MOLM-13 cells, three days.
Experiment [2] relates to MV4;11 cells. Nature of the experiment: Cell viability assay (CellTiter-Glo) in MV4;11 cells. Type of experiment: cell-based. The following applies: MV4;11 cells, three days, read-out: MV4. In short, it runs like this: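 After three days' exposure to 3-fold serial compound dilutions (8 or 12 points), viability of cells seeded at 5000/well is read by CellTiter-Glo. Runs were done alone or combined with gilteritinib at 10 nM (MV4;11) or 20 nM (MOLM-13); IC50 from nonlinear regression.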
In general terms: Cellular ATP, detected with luciferase, serves as a proxy for viable cell number.

[3] abbreviates: Homo sapiens, 72 h, compound alone, read-out: MOLM-13 IC50.
[4] abbreviates: with gilteritinib, read-out: MOLM-13 IC50 (nM) + 10 nM Gil.
Setting [5] is: Homo sapiens, MV4-11, 72 h, compound alone, 11 IC50.
Where [6] appears, read: with 10 nM gilteritinib, 11 IC50 (nM) + 10 nM Gil.

Where two headings read alike, the source gives them in different places. Bounds are passed on as bounds.

Regarding `O=C1CCC(N2C(=O)c3ccc(NC[C@H]4C[C@H](n5cc(-c6ccccc6N6CCNCC6)c(C6CC6)n5)C4)cc3C2=O)C(=O)N1` (stereo partly drawn) [GS-652, 5-(((Trans-3-(3-cyclopropyl-4-(2-(piperazin-1-yl)phenyl)-1H-pyrazol-1-yl)cyclobutyl)methyl)amino)-2-(2,6-dioxopiperidin-3-yl)isoindoline-1,3-dione], the IC50 in experiment [1] (setting [3]) was > 1000 nM; in experiment [1] (setting [4]) it was 100 to 1000 nM; in experiment [2] (setting [5]), > 1000 nM; in experiment [2] (setting [6]), 10 to 100 nM.

Consider `Cc1cc(F)cnc1-c1cn([C@H]2C[C@H](CNc3ccc4c(c3)CN(C3CCC(=O)NC3=O)C4=O)C2)nc1C1CC1` (stereo partly drawn) [GS-676, 3-(5-(((Trans-3-(3-cyclopropyl-4-(5-fluoro-3-methylpyridin-2-yl)-1H-pyrazol-1-yl)cyclobutyl)methyl)amino)-1-oxoisoindolin-2-yl)piperidine-2,6-dione], for which the IC50 in experiment [1] (setting [3]), in experiment [1] (setting [4]), in experiment [2] (setting [5]) and in experiment [2] (setting [6]) was < 10 nM each time.

As for `COc1cnc2c(c1)c(C1CC1)nn2[C@H]1C[C@H](CNc2ccc3c(c2)C(=O)N(C2CCC(=O)NC2=O)C3=O)C1` (stereo partly drawn) [GS-682, 5-(((Trans-3-(3-cyclopropyl-5-methoxy-1H-pyrazolo[3,4-b]pyridin-1-yl)cyclobutyl)methyl)amino)-2-(2,6-dioxopiperidin-3-yl)isoindoline-1,3-dione], the IC50 in experiment [1] (setting [3]) is 100 to 1000 nM; in experiment [1] (setting [4]), 10 to 100 nM; in experiment [2] (setting [5]), 10 to 100 nM; in experiment [2] (setting [6]) it was < 10 nM.

Consider `O=C1CCC(N2C(=O)c3ccc(NC[C@H]4C[C@H](n5nc(C6CC6)c6cccc(N7CCNCC7)c65)C4)cc3C2=O)C(=O)N1` (stereo partly drawn) [GS-765, 5-(((Trans-3-(3-cyclopropyl-7-(piperazin-1-yl)-1H-indazol-1-yl)cyclobutyl)methyl)amino)-2-(2,6-dioxopiperidin-3-yl)isoindoline-1,3-dione], for which the IC50 is > 1000 nM in experiment [1] (setting [3]), 100 to 1000 nM in experiment [1] (setting [4]), > 1000 nM in experiment [2] (setting [5]) and 100 to 1000 nM in experiment [2] (setting [6]).

With `O=C1CCC(N2C(=O)c3ccc(NC[C@H]4C[C@H](n5cc(Nc6ccccn6)c(C6CC6)n5)C4)cc3C2=O)C(=O)N1` (stereo partly drawn) [GS-669, 5-(((Trans-3-(3-cyclopropyl-4-(pyridin-2-ylamino)-1H-pyrazol-1-yl)cyclobutyl)methyl)amino)-2-(2,6-dioxopiperidin-3-yl)isoindoline-1,3-dione], the IC50 in experiment [1] (setting [3]) is > 1000 nM; in experiment [1] (setting [4]), 100 to 1000 nM; in experiment [2] (setting [5]), 100 to 1000 nM; in experiment [2] (setting [6]) it was 100 to 1000 nM.

`CN1CCC(n2ncc3cnc(-c4cn([C@H]5C[C@H](CNc6ccc7c(c6)C(=O)N(C6CCC(=O)NC6=O)C7=O)C5)nc4C4CC4)cc32)CC1` (stereo partly drawn) [GS-770, 5-(((Trans-3-(3-cyclopropyl-4-(1-(1-methylpiperidin-4-yl)-1H-pyrazolo[4,3-c]pyridin-6-yl)-1H-pyrazol-1-yl)cyclobutyl)methyl)amino)-2-(2,6-dioxopiperidin-3-yl)isoindoline-1,3-dione]: the IC50 in experiment [1] (setting [3]), in experiment [1] (setting [4]), in experiment [2] (setting [5]) and in experiment [2] (setting [6]) was 10 to 100 nM in each case.

With `Cn1ncc2cnc(-c3cn([C@H]4C[C@H](COc5ccc6c(c5)C(=O)N(C5CCC(=O)NC5=O)C6=O)C4)nc3C3CC3)cc21` (stereo partly drawn) [GS-761, 5-((Trans-3-(3-cyclopropyl-4-(1-methyl-1H-pyrazolo[4,3-c]pyridin-6-yl)-1H-pyrazol-1-yl)cyclobutyl)methoxy)-2-(2,6-dioxopiperidin-3-yl)isoindoline-1,3-dione], the IC50 in experiment [1] (setting [3]) is > 1000 nM; in experiment [1] (setting [4]), 100 to 1000 nM; in experiment [2] (setting [5]), > 1000 nM; in experiment [2] (setting [6]), 100 to 1000 nM.

Turning to `O=C1CCC(N2C(=O)c3ccc(NCC4CC(n5cc(-c6cnc7c(NCC(O)CO)cccc7n6)c(C6CC6)n5)C4)cc3C2=O)C(=O)N1` (stereo not drawn) [GS-702, 5-(((trans-3-(3-cyclopropyl-4-(5-((2,3-dihydroxypropyl)amino)quinoxalin-2-yl)-1-pyrazol-1-yl)cyclobutyl)methyl)amino)-2-(2,6-dioxopiperidin-3-yl)isoindoline-1,3-dione], the IC50 in experiment [1] (setting [3]), in experiment [1] (setting [4]), in experiment [2] (setting [5]) and in experiment [2] (setting [6]) was < 10 nM throughout.

Consider `O=C1CCC(N2C(=O)c3ccc(OC[C@H]4C[C@H](n5cc(-c6cnc7ccccc7n6)c(C6CC6)n5)C4)cc3C2=O)C(=O)N1` (stereo partly drawn) [GS-640, 5-((Trans-3-(3-cyclopropyl-4-(quinoxalin-2-yl)-1H-pyrazol-1-yl)cyclobutyl)methoxy)-2-(2,6-dioxopiperidin-3-yl)isoindoline-1,3-dione], for which the IC50 in experiment [1] (setting [3]) was > 1000 nM; in experiment [1] (setting [4]) it was 100 to 1000 nM; in experiment [2] (setting [5]), > 1000 nM; in experiment [2] (setting [6]), 100 to 1000 nM.

With `Cn1ccc2c(-c3cn([C@H]4C[C@H](CNc5ccc6c(c5)C(=O)N(C5CCC(=O)NC5=O)C6=O)C4)nc3C3CC3)ncc(F)c21` (stereo partly drawn) [GS-768, 5-(((Trans-3-(3-cyclopropyl-4-(7-fluoro-1-methyl-1H-pyrrolo[3,2-c]pyridin-4-yl)-1H-pyrazol-1-yl)cyclobutyl)methyl)amino)-2-(2,6-dioxopiperidin-3-yl)isoindoline-1,3-dione], the IC50 in experiment [1] (setting [3]), in experiment [1] (setting [4]), in experiment [2] (setting [5]) and in experiment [2] (setting [6]) was < 10 nM each time.

Regarding `Cn1cnc2cnc(-c3cn([C@H]4C[C@H](CNc5ccc6c(c5)C(=O)N(C5CCC(=O)NC5=O)C6=O)C4)nc3C3CC3)cc21` (stereo partly drawn) [GS-658, 5-(((Trans-3-(3-cyclopropyl-4-(1-methyl-1H-imidazo[4,5-c]pyridin-6-yl)-1H-pyrazol-1-yl)cyclobutyl)methyl)amino)-2-(2,6-dioxopiperidin-3-yl)isoindoline-1,3-dione], the IC50 in experiment [1] (setting [3]) is > 1000 nM; in experiment [1] (setting [4]), 100 to 1000 nM; in experiment [2] (setting [5]), > 1000 nM; in experiment [2] (setting [6]), 100 to 1000 nM.

As for `O=C1CCC(N2C(=O)c3ccc(NC[C@H]4C[C@H](n5nc(C6CC6)cc5Cc5ccccc5)C4)cc3C2=O)C(=O)N1` (stereo partly drawn) [GS-741, 5-((Trans-3-(5-benzyl-3-cyclopropyl-1H-pyrazol-1-yl)cyclobutyl)methylamino)-2-(2,6-dioxopiperidin-3-yl)isoindoline-1,3-dione], the IC50 is 10 to 100 nM in experiment [1] (setting [3]), 10 to 100 nM in experiment [1] (setting [4]), 10 to 100 nM in experiment [2] (setting [5]) and < 10 nM in experiment [2] (setting [6]).

On to `Cc1nc(-c2cn([C@H]3C[C@H](CNc4ccc5c(c4)C(=O)N(C4CCC(=O)NC4=O)C5=O)C3)nc2C2CC2)cc2c1cnn2C` (stereo partly drawn) [GS-747, 5-(((Trans-3-(3-cyclopropyl-4-(1,4-dimethyl-1H-pyrazolo[4,3-c]pyridin-6-yl)-1H-pyrazol-1-yl)cyclobutyl)methyl)amino)-2-(2,6-dioxopiperidin-3-yl)isoindoline-1,3-dione], for which the IC50 was 10 to 100 nM in experiment [1] (setting [3]), < 10 nM in experiment [1] (setting [4]), 10 to 100 nM in experiment [2] (setting [5]) and < 10 nM in experiment [2] (setting [6]).

Turning to `Cc1nc(-c2cn(C3CC(O)(CNc4ccc5c(c4)C(=O)N(C4CCC(=O)NC4=O)C5=O)C3)nc2C2CC2)ccc1F` (stereo not drawn) [GS-759, 5-(((Cis-3-(3-cyclopropyl-4-(5-fluoro-6-methylpyridin-2-yl)-1H-pyrazol-1-yl)-1-hydroxycyclobutyl)methyl)amino)-2-(2,6-dioxopiperidin-3-yl)isoindoline-1,3-dione], the IC50 in experiment [1] (setting [3]) was > 1000 nM; in experiment [1] (setting [4]), 10 to 100 nM; in experiment [2] (compound alone, 11 IC50) it was 100 to 1000 nM; in experiment [2] (setting [6]) it was 10 to 100 nM.

As for `Cc1ccc2c(C3CC3)nn([C@H]3C[C@H](CNc4ccc5c(c4)C(=O)N(C4CCC(=O)NC4=O)C5=O)C3)c2n1` (stereo partly drawn) [GS-672, 5-(((Trans-3-(3-cyclopropyl-6-methyl-1H-pyrazolo[3,4-b]pyridin-1-yl)cyclobutyl)methyl)amino)-2-(2,6-dioxopiperidin-3-yl)isoindoline-1,3-dione], the results for the IC50 in experiment [1] (setting [3]), in experiment [1] (setting [4]) and in experiment [2] (setting [5]) were > 1000 nM, 100 to 1000 nM and > 1000 nM, respectively.

As to `Cc1c2ccccc2nn1[C@H]1C[C@H](CNc2ccc3c(c2)C(=O)N(C2CCC(=O)NC2=O)C3=O)C1` (stereo partly drawn) [GS-688, 2-(2,6-Dioxopiperidin-3-yl)-5-(((trans-3-(3-methyl-2H-indazol-2-yl)cyclobutyl)methyl)amino)isoindoline-1,3-dione], the results for the IC50 in experiment [1] (setting [3]), in experiment [1] (setting [4]) and in experiment [2] (setting [5]) were > 1000 nM, 100 to 1000 nM and > 1000 nM, respectively.

On to `Cn1cncc1-c1cn([C@H]2C[C@H](CNc3ccc4c(c3)C(=O)N(C3CCC(=O)NC3=O)C4=O)C2)nc1C1CC1` (stereo partly drawn) [GS-691, 5-(((Trans-3-(3-cyclopropyl-4-(1-methyl-1H-imidazol-5-yl)-1H-pyrazol-1-yl)cyclobutyl)methyl)amino)-2-(2,6-dioxopiperidin-3-yl)isoindoline-1,3-dione], for which the IC50 in experiment [1] (setting [3]) and in experiment [2] (setting [5]) was > 1000 nM in each case.

In the case of `O=C1CCC(N2C(=O)c3ccc(NCC4CC(n5cc(-c6cnc7cc(C8CNC8)ccc7n6)c(C6CC6)n5)C4)cc3C2=O)C(=O)N1` (stereo not drawn) [GS-746], the IC50 is > 1000 nM in experiment [1] (setting [3]), 10 to 100 nM in experiment [1] (setting [4]), 100 to 1000 nM in experiment [2] (setting [5]) and 10 to 100 nM in experiment [2] (setting [6]).

For `Cn1ccc2nc(-c3cn([C@H]4C[C@H](CNc5ccc6c(c5)C(=O)N(C5CCC(=O)NC5=O)C6=O)C4)nc3C3CC3)ccc21` (stereo partly drawn) [GS-695, 5-(((Trans-3-(3-cyclopropyl-4-(1-methyl-1H-pyrrolo[3,2-b]pyridin-5-yl)-1H-pyrazol-1-yl)cyclobutyl)methyl)amino)-2-(2,6-dioxopiperidin-3-yl)isoindoline-1,3-dione], the IC50 in experiment [1] (setting [3]) is 10 to 100 nM; in experiment [1] (setting [4]), < 10 nM; in experiment [2] (setting [5]), 10 to 100 nM; in experiment [2] (setting [6]) it was < 10 nM.
